According to patent US20140220100A1, “VACCINE COMPOSITION FOR TRANSDERMAL ADMINISTRATION” (NITTO DENKO CORPORATION, priority 2013, published 2014):

Test system: IFN-γ-producing cells (spleen cells co-cultured with antigen peptide)
Experiment: Immunity Induction Test 1 in mouse (liquid formulation for external use), ELISPOT
Format: in vivo
Conditions: summary of Tables 1, 2 and 4; transdermal HER2/neu E75 peptide vaccine composition
Description: A cellulose non-woven fabric (area 0.8 cm^2) was attached to a middle part of an adhesive tape for fixing to prepare a composite substrate. The non-woven fabric part of the composite substrate was immersed with 67 μL of the liquid formulation for external use. Thus a sample for immunity induction test was prepared.
The liquid formulations for external use prepared as above described were used to perform an immunity induction test using a model mouse for immunological evaluation. The immunity induction level was evaluated by ELISPOT method. Specifically, the hair of the back skin of a mouse was cut, and the mouse was kept in a period for recovering from the skin damage. Thereafter, each sample was administered to the back skin of the mouse for a predetermined period, and then removed. After keeping the mouse for a predetermined day, the level of the cellular immunity induction specific for the antigen was evaluated. On a predetermined day after the administration, the spleen of the mouse was excised to prepare a suspension of the spleen cells. Spleen cells (3×10^6 cells/well) and an antigen peptide (100 μM) were added together with a culture solution into a well of ELISPOT plate containing an immobilized anti-mouse IFN-γ […], and co-cultured at 37° C. in 5% CO2 for 20 hours. The spot number of IFN-γ-producing cells was evaluated by ELISPOT method (the number of the spot/3×10^6 cells). The dosage of the liquid formulation for external use was all 67 μL as described above, and the administration was performed once (24 hr/week), the spleen was excised 6 days after the administration.
The results of the immunity induction test, and the measurement results of TSLP level and transepidermal water loss are shown in Table 1.

Structure (SMILES)	promotion of induction of cellular immunity by addition of a pharmacologically acceptable acid as second cellular immunity induction promoter
CCCCCCCCCCCCCCCCCC(=O)O [stearic acid]	effective
CS(=O)(=O)O [methanesulfonic acid]	effective
CC(C)CCCCCCCCCCCCCCC(=O)O [isostearic acid]	effective
CCCCCCCCCCCC(=O)O [lauric acid]	effective
CCCCCCCCCCCCCCCC(=O)O [palmitic acid]	effective
CC(O)C(=O)O (stereo not drawn) [lactic acid]	effective
O=C(O)/C=C\C(=O)O [maleic acid]	effective
O=C(O)c1ccccc1O [salicylic acid]	effective
CCCCCCCC/C=C\CCCCCCCC(=O)O [oleic acid]	effective
CCCCCCCCCCCCCC(=O)O [myristic acid]	effective
O=C(O)CC(O)C(=O)O (stereo not drawn) [malic acid]	effective
CCCCCCCCCC(=O)O [decanoic acid]	effective
